Columns and labels:
Type in all cases: in vivo
[1] = tested on: crabgrass, large (large crabgrass Digitaria sanguinalis); test: Test E pre-/postemergence greenhouse herbicide test; details: Preemergence, scale 0 to 100
[2] = tested on: goosegrass (Eleusine indica); test: as above; details: Preemergence, scale 0 to 100
[3] = tested on: surinam grass (Brachiaria decumbens); test: as above; details: Preemergence, scale 0 to 100
[4] = tested on: cocklebur (common cocklebur, Xanthium strumarium); test: as above; details: Preemergence, scale 0 to 100
[5] = tested on: poinsettia, wild (wild poinsettia, Euphorbia heterophylla); test: as above; details: scale 0 to 100
[6] = tested on: panicum, fall (fall panicum, Panicum dichotomiflorum); test: as above; details: scale 0 to 100
In short: (§1)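 Formulated test chemical (solvent mixture with surfactant) is applied preemergence to seeded silt loam and postemergence to plants at 1- to 4-leaf stage grown in peat-based medium. Greenhouse holding 14 to 21 d; response scored visually, 0 no effect to 100 complete control.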

[7] = tested on: velvetleaf (Abutilon theophrasti); test: as above; details: Preemergence, scale 0 to 100
In short: as §1

[8] = tested on: foxtail, green (green foxtail, Setaria viridis); test: as above; details: Preemergence, scale 0 to 100
In short: as §1

[9] = tested on: smartweed (ladysthumb smartweed, Polygonum persicaria); test: as above; details: scale 0 to 100
In short: as §1

[10] = tested on: corn (Zea mays); test: as above; details: scale 0 to 100
In short: as §1

[11] = tested on: foxtail, giant (giant foxtail, Setaria faberii); test: as above; details: Preemergence, scale 0 to 100
In short: as §1

[12] = tested on: waterhemp_RES1 (ALS & Triazine resistant common waterhemp, Amaranthus rudis); test: Test E postemergence greenhouse herbicide test; details: scale 0 to 100
Experimental: (§2) At the same time, plants from these crop and weed species and also waterhemp_RES1, (ALS & Triazine resistant common waterhemp, Amaranthus rudis), and waterhemp_RES2, (ALS & HPPD resistant common waterhemp, Amaranthus rudis) were planted in pots containing Redi-Earth® planting medium (Scotts Company, 14111 Scottslawn Road, Marysville, Ohio 43041) comprising spaghnum peat moss, vermiculite, wetting agent and starter nutrients were treated with postemergence applications of test chemicals formulated in the same manner. Plants ranged in height from 2 to 18 cm for postemergence treatments (1- to 4-leaf stage). Treated plants and controls were maintained in a greenhouse for 14 to 21 d, after which time all species were compared to controls and visually evaluated. Plant response ratings, summarized in Table E, are based on a scale of 0 to 100 where 0 is no effect and 100 is complete control. A dash (-) response means no test result.

[13] = tested on: waterhemp_RES2 (ALS & HPPD resistant common waterhemp, Amaranthus rudis); test: Test E postemergence greenhouse herbicide test; details: scale 0 to 100
Experimental: as §2

COc1cc(=O)n(-c2ccc(C(F)(F)F)cc2)nc1Cc1ccnc(C(F)(F)F)c1 [Compound 16, 5-methoxy-2-[4-(trifluoromethyl)phenyl]-6-[[2-(trifluoromethyl)-4-pyridinyl]methyl]-3(2H)-pyridazinone]
40: Plant response rating: Surinam Grass ([3]; 125 g ai/ha) | Plant response rating: Panicum, Fall ([6]; Postemergence, 125 g ai/ha) | Plant response rating: Smartweed ([9]; Postemergence, 62 g ai/ha) | Plant response rating: Corn ([10]; Postemergence, 125 g ai/ha) | Plant response rating: Corn ([10]; Preemergence, 62 g ai/ha) | Plant response rating: Corn ([10]; Preemergence, 125 g ai/ha)
60: Plant response rating: Poinsettia, Wild ([5]; Postemergence, 62 g ai/ha)
30: Plant response rating: Panicum, Fall ([6]; Postemergence, 62 g ai/ha) | Plant response rating: Corn ([10]; Postemergence, 62 g ai/ha)
65: Plant response rating: Poinsettia, Wild ([5]; Preemergence, 250 g ai/ha) | Plant response rating: Corn ([10]; Preemergence, 250 g ai/ha)
100: Plant response rating: Crabgrass, Large ([1]; 62 g ai/ha) | Plant response rating: Crabgrass, Large ([1]; 125 g ai/ha) | Plant response rating: Crabgrass, Large ([1]; 250 g ai/ha) | Plant response rating: Panicum, Fall ([6]; Preemergence, 250 g ai/ha) | Plant response rating: Foxtail, Green ([8]; 250 g ai/ha) | Plant response rating: Smartweed ([9]; Preemergence, 250 g ai/ha) | Plant response rating: Foxtail, Giant ([11]; 250 g ai/ha) | Plant response rating: Waterhemp_RES1 ([12]; 125 g ai/ha) | Plant response rating: Waterhemp_RES1 ([12]; 250 g ai/ha) | Plant response rating: Waterhemp_RES2 ([13]; 250 g ai/ha)
0: Plant response rating: Cocklebur ([4]; 125 g ai/ha) | Plant response rating: Cocklebur ([4]; 250 g ai/ha) | Plant response rating: Velvetleaf ([7]; 62 g ai/ha) | Plant response rating: Velvetleaf ([7]; 125 g ai/ha)
5: Plant response rating: Goosegrass ([2]; 62 g ai/ha)
50: Plant response rating: Goosegrass ([2]; 250 g ai/ha) | Plant response rating: Panicum, Fall ([6]; Postemergence, 250 g ai/ha) | Plant response rating: Panicum, Fall ([6]; Preemergence, 62 g ai/ha) | Plant response rating: Velvetleaf ([7]; 250 g ai/ha) | Plant response rating: Foxtail, Green ([8]; 62 g ai/ha) | Plant response rating: Corn ([10]; Postemergence, 250 g ai/ha)
25: Plant response rating: Surinam Grass ([3]; 62 g ai/ha)
75: Plant response rating: Poinsettia, Wild ([5]; Postemergence, 250 g ai/ha) | Plant response rating: Foxtail, Giant ([11]; 62 g ai/ha)
35: Plant response rating: Poinsettia, Wild ([5]; Preemergence, 62 g ai/ha) | Plant response rating: Poinsettia, Wild ([5]; Preemergence, 125 g ai/ha)
95: Plant response rating: Foxtail, Green ([8]; 125 g ai/ha) | Plant response rating: Waterhemp_RES1 ([12]; 62 g ai/ha) | Plant response rating: Waterhemp_RES2 ([13]; 125 g ai/ha)
70: Plant response rating: Poinsettia, Wild ([5]; Postemergence, 125 g ai/ha) | Plant response rating: Smartweed ([9]; Postemergence, 125 g ai/ha) | Plant response rating: Smartweed ([9]; Postemergence, 250 g ai/ha)
90: Plant response rating: Panicum, Fall ([6]; Preemergence, 125 g ai/ha) | Plant response rating: Foxtail, Giant ([11]; 125 g ai/ha) | Plant response rating: Waterhemp_RES2 ([13]; 62 g ai/ha)
20: Plant response rating: Goosegrass ([2]; 125 g ai/ha)
98: Plant response rating: Surinam Grass ([3]; 250 g ai/ha) | Plant response rating: Smartweed ([9]; Preemergence, 62 g ai/ha) | Plant response rating: Smartweed ([9]; Preemergence, 125 g ai/ha)
